Where “and” joins values, the source holds several entries; their conditions need not be identical. Equal entries are not always repeated. Residues, ends and D or L forms follow the SMILES beside them. No end group written: not given here.

One test concerns the target RTA depurination activity on yeast ribosomes (Ricinus communis, UniProt P02879). Kind of test: biochemical. The format is biochemical.
Conditions: not given
In the case of SDDDMGFGLFD [P11], the “Imax (maximal inhibition), yeast ribosome” value is 90% and 89.7 ± 3.0%.

Staying with this test, now noted: Yeast Ribosome IC50.
As for `CC(C)C[C@H](NC(=O)CN)C(=O)N[C@@H](Cc1ccccc1)C(=O)N[C@@H](CC(=O)O)C(=O)O` [P4, G112LFD115] (H-GLFD-OH), inhibition was half-maximal at 102 ± 45 µM (IC50).

The compound DDDMGFGLFD [P10] returned an IC50 of 7.9 ± 1.7 µM.

As to DDMGFGLFD [P9], the IC50 turned out to be 15 ± 1.5 µM.

On to DMGFGLFD [P8, D108MGFGLFD115], for which the IC50 worked out at 23 ± 4.4 µM.

In the case of FGLFD [P5, F111GLFD115], the IC50 was 121 ± 44 µM.

GFGLFD [P6, G110FGLFD115]: the half-inhibitory concentration (IC50) stood at 63 ± 13 µM.

With MGFGLFD [P7, M109GFGLFD115], the half-inhibitory concentration (IC50) was found to be 34 ± 9.5 µM.

Regarding SDDDMGFGLFD [P11], the IC50 was 5 µM and 4.7 µM.

The next test concerns the target RTA depurination activity on rat liver ribosomes (Ricinus communis, UniProt P02879). Kind of test: biochemical. The format is biochemical.
Conditions: not given
Turning to DDDMGFGLFD [P10], inhibition was half-maximal at 83 ± 18 µM (IC50).

On to DDMGFGLFD [P9], for which it took 142 ± 61 µM to reach half-maximal inhibition (IC50).

In turn, DMGFGLFD [P8, D108MGFGLFD115] displayed an IC50 of 267 ± 80 µM.

For SDDDMGFGLFD [P11], the IC50 was determined as 30.8 ± 6.3 µM; the “Imax (maximal inhibition), rat ribosome” value is 90% and 89.4 ± 4.2%.

For a further test, the target named is RTA–yeast ribosome interaction (Ricinus communis, UniProt P02879).
Experiment: not given
The format is binding.
Conditions: not given
Consider GFGLFD [P6, G110FGLFD115], for which the “inhibition of ribosome binding to RTA” value was < 100%.

Broadly, the IC50 is the midpoint of a concentration-inhibition curve. High values mean lower potency, low ones higher potency.

The values above are taken from paper PMC6162817 (Toxins, 2018).
